According to PubChem BioAssay (NCI):
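Five concentrations, 48 hours, 96-well plates. GI50 is the concentration that inhibits growth by half. TGI: total growth inhibition.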

Tests used:
Assay in all cases: NCI tumour cell line growth inhibition, 48 h
[1] = test system: A498 renal
[2] = test system: ACHN renal
[3] = test system: CCRF-CEM leukemia
[4] = test system: IGROV1 ovarian
[5] = test system: MOLT-4 leukemia
[6] = test system: RPMI-8226 leukemia
[7] = test system: SF-539 CNS
[8] = test system: UACC-257 melanoma
[9] = test system: NCI-H460 lung

| SMILES | TGI [1] [µM] | TGI [2] [µM] | TGI [3] [µM] | TGI [4] [µM] | TGI [5] [µM] | TGI [6] [µM] | TGI [7] [µM] | TGI [8] [µM] | TGI [9] [µM] | GI50 [1] [µM] | GI50 [2] [µM] | GI50 [3] [µM] | GI50 [4] [µM] | GI50 [9] [µM] | GI50 [6] [µM] | GI50 [7] [µM] | GI50 [8] [µM] |
| --- | --- | --- | --- | --- | --- | --- | --- | --- | --- | --- | --- | --- | --- | --- | --- | --- | --- |
| Oc1ccc2c(c1)-c1c(c3cc(O)ccc3n1CCN1CCOCC1)CC2 | 60 | > 100 | 68.7 | > 100 | 60.4 | > 100 | 76 | > 100 | – | – | – | – | – | – | – | – | – |
| COc1cc2c(cc1OC)C1CN3C(=O)CCC3C(O)C1c1cc(OC)c(OC)cc1-2 (stereo not drawn) | > 100 | > 100 | > 100 | > 100 | > 100 | > 100 | – | > 100 | > 100 | – | – | – | – | – | – | – | – |
| O=[N+]([O-])c1ccc2c(c1)nc(Cc1ccccc1)n2C[C@@H]1CCCN2CCCCC12 (stereo partly drawn) | 33.2 | > 100 | 50.2 | > 100 | 47.6 | – | – | 31.4 | > 100 | – | – | – | – | – | – | – | – |
| c1ccc2c(c1)c1c(n2CCOCCN2CCCCC2)CCCC1 | – | 27.7 | 29.6 | 28.1 | 26.7 | 28 | 31.7 | – | 28.2 | – | – | – | – | – | – | – | – |
| N#CCCNCCN(CCN(C(=O)Nc1ccccc1)c1ccccc1)C(=O)Nc1ccccc1 | > 100 | > 100 | > 100 | > 100 | > 100 | > 100 | – | 32.1 | > 100 | – | – | – | – | – | – | – | – |
| CN(C)CCCn1c(Cc2ccccc2)nc2cc(C(F)(F)F)ccc21 | 34.6 | > 100 | 40.3 | > 100 | 48.3 | – | – | 34.2 | 43.2 | – | – | – | – | – | – | – | – |
| COC(c1ccsc1)C(C#N)(C#N)N=Cc1ccsc1 (stereo not drawn) | 29.1 | 54.6 | 39 | 52 | 43.3 | – | 30.4 | 29.6 | 45.4 | – | – | – | – | – | – | – | – |
| O=C1NN=C(c2ccc(Cl)cc2)CC1C1C(=O)N(c2ccccc2)N=C1c1ccccc1 (stereo not drawn) | 84.4 | > 100 | 76.3 | > 100 | > 100 | > 100 | 66.8 | – | 80.4 | – | – | – | – | – | – | – | – |
| COC12C=C/C(=C(/C(=O)OCc3ccncn3)C(=O)CCCCCCCCC3(OC)C=C/C(=C(/C(=O)OCc4ccncn4)C(=O)CCCCCCCC1)O3)O2 | 0.833 | 1.14 | 1.55 | 4.46 | – | 0.995 | 2.66 | 0.882 | 1.02 | 0.252 | 0.302 | 0.251 | 0.418 | 0.319 | 0.263 | 0.354 | 0.261 |
| CCSc1ncnc2c(C3OC(CO)C(O)C3O)nsc12 (stereo not drawn) | > 100 | – | > 100 | > 100 | > 100 | – | > 100 | – | – | – | – | – | – | – | – | – | – |
| O=C(NCC1Nc2ccncc2S(=O)(=O)N1)c1ccc(Br)cc1 (stereo not drawn) | > 100 | > 100 | – | > 100 | > 100 | > 100 | – | > 100 | > 100 | – | – | – | – | – | – | – | – |
| CC(=O)Nc1ccc(S(=O)(=O)Nc2nnc(S(N)(=O)=O)s2)cc1 | > 100 | > 100 | – | – | > 100 | > 100 | > 100 | – | > 100 | – | – | – | – | – | – | – | – |
| CC(C)OC(=O)c1ccc(NCC2=CC(=O)C=CC2=O)cc1Cl | 43.2 | 16 | – | 30.5 | > 30.7 | – | 37.5 | 33.9 | 41 | – | – | – | – | – | – | – | – |
| CC1CN=C(Nc2cccc(C(F)(F)F)c2)S1 (stereo not drawn) | > 100 | > 100 | > 100 | – | > 100 | > 100 | > 100 | > 100 | > 100 | – | – | – | – | – | – | – | – |
| CCOC(=O)c1c(SC(=O)c2cc(OC)c(OC)c(OC)c2)n(-c2ccccc2)c(=S)n(-c2ccccc2)c1=O | > 100 | > 100 | > 100 | > 100 | > 100 | – | > 100 | > 100 | > 100 | – | – | – | – | – | – | – | – |
| Cc1nc2c(cc1C(=O)NN)c(=O)n(C)c(=O)n2C | – | > 100 | > 100 | > 100 | > 100 | > 100 | – | > 100 | > 100 | – | – | – | – | – | – | – | – |
| CN(C(=O)C12C3C4(C(=O)O)C1(C(=O)N(C)C(C)(C)C)C1C2(C(=O)O)C3(C(=O)N(C)C(C)(C)C)C14C(=O)N(C)C(C)(C)C)C(C)(C)C (stereo not drawn) | > 100 | > 100 | > 100 | > 100 | > 100 | – | > 100 | > 100 | > 100 | – | – | – | – | – | – | – | – |
| CC1=NN(c2cccc(Cl)c2)C2(C1)C(Cl)C(=O)N2c1nc2ccccc2s1 (stereo not drawn) | > 100 | > 100 | – | > 100 | 38.6 | 41.6 | – | > 100 | > 100 | – | – | – | – | – | – | – | – |
| O=S(=O)(c1cc(Cl)ccc1Cl)N1CCN(S(=O)(=O)c2cc(Cl)ccc2Cl)CC1 | > 100 | > 100 | – | > 100 | > 100 | – | > 100 | > 100 | > 100 | – | – | – | – | – | – | – | – |
| CCCSc1cc(Cl)c(C)cc1S(=O)(=O)n1ccnc1OCCCN(C)C | > 100 | > 100 | > 100 | > 100 | > 100 | – | > 100 | > 100 | > 100 | – | – | – | – | – | – | – | – |
| Cc1ccccc1N=C(N)NC#N | – | > 100 | > 100 | > 100 | > 100 | > 100 | > 100 | > 100 | > 100 | – | – | – | – | – | – | – | – |
| O=[N+]([O-])C(/C(Cl)=C(/Cl)N1CCOCC1)=C1\NCCO1 | > 100 | > 100 | > 100 | – | > 100 | > 100 | > 100 | > 100 | > 100 | – | – | – | – | – | – | – | – |
| O=C1C=Cc2c(Cl)sc(Cl)c21 | 16.1 | 3.16 | 1.36 | 3.09 | – | 4.02 | – | 4.78 | 45.2 | – | – | – | – | – | – | – | – |
| CCOC(=O)c1ccc(-c2cc(C)[nH]n2)[nH]1 | > 100 | > 100 | > 100 | – | – | > 100 | > 100 | > 100 | > 100 | – | – | – | – | – | – | – | – |
| Cc1cc(S(=O)(=O)Nc2nc3ccsc3c(=O)n2N)c(S)cc1Cl | – | > 100 | > 100 | > 100 | > 100 | > 100 | > 100 | > 100 | > 100 | – | – | – | – | – | – | – | – |
